PMC6443962, “Anti-nociceptive and Anti-inflammatory Activities of Asparacosin A Involve Selective Cyclooxygenase 2 and Inflammatory Cytokines Inhibition: An in-vitro, in-vivo, and in-silico Approach” (Frontiers in Immunology, 2019)

Columns and labels:
[1] = target: T1, COX-2 (cyclooxygenase 2, human recombinant) (Homo sapiens, UniProt P35354); experiment: colorimetric COX inhibitor screening assay (Cayman kit […]); type: biochemical
T1 construct: gene PTGS2
T1 sequence (P35354 18-604): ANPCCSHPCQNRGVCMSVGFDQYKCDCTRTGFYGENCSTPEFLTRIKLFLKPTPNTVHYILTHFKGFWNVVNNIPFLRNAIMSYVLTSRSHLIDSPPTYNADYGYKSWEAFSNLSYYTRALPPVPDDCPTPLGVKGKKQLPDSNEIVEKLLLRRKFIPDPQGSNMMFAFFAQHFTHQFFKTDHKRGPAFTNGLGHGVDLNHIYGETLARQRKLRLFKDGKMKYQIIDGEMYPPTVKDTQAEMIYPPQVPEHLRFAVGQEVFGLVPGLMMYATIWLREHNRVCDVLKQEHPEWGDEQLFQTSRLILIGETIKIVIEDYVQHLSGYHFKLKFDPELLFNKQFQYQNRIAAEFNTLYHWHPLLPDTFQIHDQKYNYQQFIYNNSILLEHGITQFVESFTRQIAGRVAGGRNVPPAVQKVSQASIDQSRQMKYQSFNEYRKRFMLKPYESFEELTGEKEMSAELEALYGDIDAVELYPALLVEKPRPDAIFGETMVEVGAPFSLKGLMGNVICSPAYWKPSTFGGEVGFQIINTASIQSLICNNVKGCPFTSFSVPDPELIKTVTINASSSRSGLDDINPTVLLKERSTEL

[2] = target: T2, COX-1 (cyclooxygenase 1, ovine) (Ovis aries, UniProt P05979); experiment: as above; type: biochemical
T2 construct: gene PTGS1
T2 sequence (P05979 25-600): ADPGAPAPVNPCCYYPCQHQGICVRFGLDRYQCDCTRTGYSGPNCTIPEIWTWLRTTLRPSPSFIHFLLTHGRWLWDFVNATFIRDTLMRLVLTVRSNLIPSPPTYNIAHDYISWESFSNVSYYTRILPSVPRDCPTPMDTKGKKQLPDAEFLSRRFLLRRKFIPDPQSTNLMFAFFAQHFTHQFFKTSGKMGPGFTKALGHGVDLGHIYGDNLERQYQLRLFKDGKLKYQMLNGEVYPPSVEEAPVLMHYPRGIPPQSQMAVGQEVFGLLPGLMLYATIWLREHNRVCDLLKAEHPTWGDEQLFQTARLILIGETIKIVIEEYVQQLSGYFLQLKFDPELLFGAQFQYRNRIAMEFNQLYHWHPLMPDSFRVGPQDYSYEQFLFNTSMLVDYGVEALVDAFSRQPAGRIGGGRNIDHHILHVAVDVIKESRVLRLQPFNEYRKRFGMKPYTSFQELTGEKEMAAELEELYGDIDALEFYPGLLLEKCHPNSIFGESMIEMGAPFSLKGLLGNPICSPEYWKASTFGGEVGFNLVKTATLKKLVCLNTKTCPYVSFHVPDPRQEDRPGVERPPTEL

Q: Which IC50 [1] does the source give for `C[C@@H]1CC[C@@]2(OC1)O[C@H]1C[C@H]3[C@@H]4CCC5=CC(=O)CC[C@]5(C)[C@H]4C[C@@H](O)[C@]3(C)[C@@]1(O)[C@@H]2C` [Asparacosin A] here?
A: 0.6 µM

Q: What about the IC50 [2] of the same compound?
A: 24.2 µM
